Assays:
[1] = test system: giant foxtail; assay: Test A pre-/postemergence greenhouse test; assay type: in vivo, Setaria faberi; conditions: for Plant response rating, Foxtail, Giant: 0 to 100 scale where 0 is no effect and 100 is complete control; for Foxtail, Giant plant response rating: 0 to 100 scale
Method in brief: (§1)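 Visual injury ratings against untreated controls, taken roughly ten days after treatment in greenhouse. Plants were sprayed postemergence at one- to two-leaf stage (2–10 cm tall); at the same time, seeded loam/sand soil received a directed preemergence spray. Formulation: non-phytotoxic solvent mixture with surfactant.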

[2] = test system: pigweed; assay: Test C pre-/postemergence test; assay type: in vivo, Amaranthus retroflexus; conditions: for Plant response rating, Pigweed: 31 g ai/ha, scale 0 to 100 (0 no effect, 100 complete control)
Method in brief: (§2)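 Seeds were planted and treated preemergence with test chemical in a non-phytotoxic solvent mixture containing surfactant. Postemergence applications of the same formulation went onto plants 2 to 18 cm tall (1- to 4-leaf stage). A dash marks no test result.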

[3] = test system: bermudagrass; assay: Test C pre-/postemergence test; assay type: in vivo, Cynodon dactylon; conditions: for Plant response rating, Bermudagrass: 31 g ai/ha
Method in brief: as §2

[4] = test system: corn; assay: Test A pre-/postemergence greenhouse test; assay type: in vivo, Zea mays; conditions: for Plant response rating, Corn: 0 to 100 scale where 0 is no effect and 100 is complete control; for Corn plant response rating: 0 to 100 scale
Method in brief: as §1

[5] = test system: wheat; assay: Test A pre-/postemergence greenhouse test; assay type: in vivo, Triticum aestivum; conditions: for Plant response rating, Wheat: 0 to 100 scale where 0 is no effect and 100 is complete control; for Wheat plant response rating: 0 to 100 scale
Method in brief: as §1

[6] = test system: velvetleaf; assay: Test A pre-/postemergence greenhouse test; assay type: in vivo, Abutilon theophrasti; conditions: for Plant response rating, Velvetleaf: 0 to 100 scale where 0 is no effect and 100 is complete control; for Velvetleaf plant response rating: 0 to 100 scale
Method in brief: as §1

[7] = test system: rice; assay: Test C flooded paddy test; assay type: in vivo, Oryza sativa; conditions: Flood
Method in brief: (§3)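 In-water treatment: compound dosed into 3 cm flood over soil, water level unchanged throughout. Controls run alongside; visual assessment at day 13–15.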

[8] = test system: Surinam grass; assay: Test C pre-/postemergence test; assay type: in vivo, Brachiaria decumbens; conditions: for Plant response rating, Surinam Grass: 31 g ai/ha, scale 0 to 100 (0 no effect, 100 complete control)
Method in brief: as §2

[9] = test system: barnyardgrass; assay: Test C flooded paddy test; assay type: in vivo, Echinochloa crus-galli; conditions: Flood
Method in brief: as §3

[10] = test system: catchweed bedstraw; assay: Test C pre-/postemergence test; assay type: in vivo, Galium aparine; conditions: for Plant response rating, Galium: 31 g ai/ha, scale 0 to 100 (0 no effect, 100 complete control)
Method in brief: as §2

[11] = test system: soybean; assay: Test C pre-/postemergence test; assay type: in vivo, Glycine max; conditions: for Plant response rating, Soybean: 31 g ai/ha, scale 0 to 100 (0 no effect, 100 complete control)
Method in brief: as §2

[12] = test system: lambsquarters; assay: Test C pre-/postemergence test; assay type: in vivo, Chenopodium album; conditions: for Plant response rating, Lambsquarters: 31 g ai/ha, scale 0 to 100 (0 no effect, 100 complete control)
Method in brief: as §2

[13] = test system: morningglory; assay: Test C pre-/postemergence test; assay type: in vivo, Ipomoea coccinea; conditions: for Plant response rating, Morningglory: 31 g ai/ha, scale 0 to 100 (0 no effect, 100 complete control)
Method in brief: as §2

[14] = test system: giant foxtail; assay: Test C pre-/postemergence test; assay type: in vivo, Setaria faberii; conditions: for Plant response rating, Foxtail, Giant: 31 g ai/ha, scale 0 to 100 (0 no effect, 100 complete control)
Method in brief: as §2

[15] = test system: downy brome; assay: Test C pre-/postemergence test; assay type: in vivo, Bromus tectorum; conditions: for Plant response rating, Bromegrass, Downy: 31 g ai/ha, scale 0 to 100 (0 no effect, 100 complete control)
Method in brief: as §2

[16] = test system: crabgrass; assay: Test C pre-/postemergence test; assay type: in vivo, Digitaria sanguinalis; conditions: for Plant response rating, Crabgrass, Large: 31 g ai/ha, scale 0 to 100 (0 no effect, 100 complete control)
Method in brief: as §2

[17] = test system: johnsongrass; assay: Test C pre-/postemergence test; assay type: in vivo, Sorghum halepense; conditions: for Plant response rating, Johnsongrass: 31 g ai/ha, scale 0 to 100 (0 no effect, 100 complete control)
Method in brief: as §2

[18] = Postemergence, 500 g ai/ha, 0 is no effect, 100 is complete control
[19] = Preemergence, 125 g ai/ha, 0 no effect, 100 complete control
[20] = 62 g ai/ha, Preemergence, scale 0 to 100
[21] = 125 g ai/ha, preemergence, scale 0 (no effect) to 100 (complete control)
[22] = preemergence, 250 g ai/ha, scale 0 (no effect) to 100 (complete control)
[23] = 62 g ai/ha, Preemergence, scale 0 to 100 (0 no effect, 100 complete control)
[24] = Preemergence, scale 0 to 100 (0 no effect, 100 complete control)
[25] = 62 g ai/ha, scale 0 to 100, 0 no effect, 100 complete control, 13 to 15 days
[26] = 250 g ai/ha, scale 0 to 100, 0 no effect, 100 complete control, 13 to 15 days
[27] = Preemergence, 500 g ai/ha, 0 no effect, 100 complete control
[28] = 62 g ai/ha, scale 0 to 100 (0 no effect, 100 complete control)

Cn1nc(C(F)(F)F)c(C(Cl)S(=O)(=O)c2cccc[n+]2[O-])c1OC(F)F (stereo not shown) [Compound 51]
55: Plant response rating, Rice [7, 26]
60: Wheat plant response rating [5, 18] | Plant response rating, Velvetleaf ([6]; Postemergence, 125 g ai/ha) | Velvetleaf plant response rating [6, 19]
25: Plant response rating, Rice [7, 25]
98: Surinam Grass plant response rating [8, 21] | Johnsongrass plant response rating [17, 21]
80: Plant response rating, Galium ([10]; Preemergence)
90: Foxtail, Giant plant response rating [1, 18] | Plant response rating, Bermudagrass [3, 24] | Foxtail, Giant plant response rating [14, 21]
0: Plant response rating, Corn ([4]; Postemergence, 125 g ai/ha) | Corn plant response rating [4, 19] | Plant response rating, Corn ([4]; Preemergence, 500 g ai/ha) | Plant response rating, Barnyardgrass [9, 25] | Soybean plant response rating [11, 20] | Soybean plant response rating [11, 21] | Plant response rating, Soybean ([11]; Preemergence) | Soybean plant response rating [11, 22] | Bromegrass, Downy plant response rating [15, 20] | Bromegrass, Downy plant response rating [15, 21] | Plant response rating, Bromegrass, Downy ([15]; Preemergence) | Bromegrass, Downy plant response rating [15, 22]
100: Foxtail, Giant plant response rating [1, 19] | Plant response rating, Foxtail, Giant ([1]; Preemergence, 500 g ai/ha) | Pigweed plant response rating [2, 20] | Pigweed plant response rating [2, 21] | Pigweed plant response rating [2, 22] | Bermudagrass plant response rating [3, 23] | Bermudagrass plant response rating [3, 21] | Bermudagrass plant response rating [3, 22] | Surinam Grass plant response rating [8, 22] | Lambsquarters plant response rating [12, 20] | Lambsquarters plant response rating [12, 21] | Plant response rating, Lambsquarters ([12]; Preemergence) | Lambsquarters plant response rating [12, 22] | Morningglory plant response rating [13, 20] | Morningglory plant response rating [13, 21] | Plant response rating, Morningglory ([13]; Preemergence) | Morningglory plant response rating [13, 22] | Foxtail, Giant plant response rating [14, 22] | Crabgrass, Large plant response rating [16, 20] | Crabgrass, Large plant response rating [16, 21] | Crabgrass, Large plant response rating [16, 22] | Johnsongrass plant response rating [17, 22]
95: Galium plant response rating [10, 21] | Galium plant response rating [10, 22] | Johnsongrass plant response rating [17, 20]
40: Plant response rating, Wheat ([5]; Postemergence, 125 g ai/ha)
85: Plant response rating, Pigweed ([2]; Preemergence) | Galium plant response rating [10, 20]
65: Plant response rating, Crabgrass, Large ([16]; Preemergence)
75: Plant response rating, Johnsongrass ([17]; Preemergence)
30: Wheat plant response rating [5, 19]
50: Plant response rating, Foxtail, Giant ([1]; Postemergence, 125 g ai/ha) | Plant response rating, Wheat ([5]; Preemergence, 500 g ai/ha) | Plant response rating, Barnyardgrass [9, 26] | Foxtail, Giant plant response rating [14, 20]
20: Corn plant response rating [4, 18]
10: Surinam Grass plant response rating [8, 20] | Plant response rating, Surinam Grass ([8]; Preemergence) | Plant response rating, Foxtail, Giant ([14]; Preemergence)
70: Velvetleaf plant response rating [6, 18] | Plant response rating, Velvetleaf ([6]; Preemergence, 500 g ai/ha)

CCc1cc[n+]([O-])c(S(=O)(=O)Cc2c(C(F)(F)F)nn(C)c2OC(F)F)c1 [Compound 102]
60: Plant response rating, Pigweed ([2]; Preemergence) | Wheat plant response rating [5, 18] | Plant response rating, Foxtail, Giant ([14]; Preemergence)
50: Corn plant response rating [4, 18] | Plant response rating, Wheat ([5]; Postemergence, 125 g ai/ha) | Wheat plant response rating [5, 19] | Plant response rating, Soybean ([11]; Preemergence) | Plant response rating, Bromegrass, Downy ([15]; Preemergence)
40: Plant response rating, Corn ([4]; Postemergence, 125 g ai/ha) | Plant response rating, Lambsquarters ([12]; Preemergence)
90: Foxtail, Giant plant response rating [1, 18] | Foxtail, Giant plant response rating [1, 19] | Velvetleaf plant response rating [6, 18]
85: Bermudagrass plant response rating [3, 23] | Plant response rating, Bermudagrass [3, 24] | Morningglory plant response rating [13, 20] | Foxtail, Giant plant response rating [14, 21] | Foxtail, Giant plant response rating [14, 22]
65: Plant response rating, Surinam Grass ([8]; Preemergence) | Soybean plant response rating [11, 21] | Plant response rating, Morningglory ([13]; Preemergence)
95: Pigweed plant response rating [2, 20] | Surinam Grass plant response rating [8, 22] | Galium plant response rating [10, 20] | Crabgrass, Large plant response rating [16, 20] | Crabgrass, Large plant response rating [16, 21]
70: Plant response rating, Velvetleaf ([6]; Postemergence, 125 g ai/ha) | Velvetleaf plant response rating [6, 19] | Surinam Grass plant response rating [8, 20] | Surinam Grass plant response rating [8, 21] | Foxtail, Giant plant response rating [14, 20] | Plant response rating, Crabgrass, Large ([16]; Preemergence) | Plant response rating, Johnsongrass ([17]; Preemergence)
100: Foxtail, Giant plant response rating [1, 27] | Pigweed plant response rating [2, 21] | Pigweed plant response rating [2, 22] | Bermudagrass plant response rating [3, 21] | Bermudagrass plant response rating [3, 22] | Wheat plant response rating [5, 27] | Velvetleaf plant response rating [6, 27] | Galium plant response rating [10, 21] | Galium plant response rating [10, 22] | Lambsquarters plant response rating [12, 21] | Lambsquarters plant response rating [12, 22] | Morningglory plant response rating [13, 21] | Morningglory plant response rating [13, 22] | Bromegrass, Downy plant response rating [15, 20] | Bromegrass, Downy plant response rating [15, 21] | Bromegrass, Downy plant response rating [15, 22] | Crabgrass, Large plant response rating [16, 22] | Johnsongrass plant response rating [17, 20] | Johnsongrass plant response rating [17, 21] | Johnsongrass plant response rating [17, 22]
0: Corn plant response rating [4, 19] | Corn plant response rating [4, 27] | Plant response rating, Rice [7, 28] | Plant response rating, Barnyardgrass [9, 28] | Plant response rating, Barnyardgrass [9, 26]
80: Plant response rating, Foxtail, Giant ([1]; Postemergence, 125 g ai/ha) | Soybean plant response rating [11, 22] | Lambsquarters plant response rating [12, 20]
30: Plant response rating, Galium ([10]; Preemergence)
20: Plant response rating, Rice [7, 26]

Source: patent publication US20100298141A1, “SUBSTITUTED PYRIDINE N-OXIDE HERBICIDES” (E. I. DU PONT DE NEMOURS AND COMPANY, priority 2007, published 2010)
